Data taken from ChEMBL document CHEMBL3885881, “DrugMatrix”.

Organism: Rattus norvegicus
Assay: DrugMatrix - Regimen: Daily Repeat
Format: toxicity, organism-based, Sprague-Dawley
Parameters: regimen Daily Repeat, gender Male, age 6-8 weeks
Conditions: in vivo, po, route oral GAVAGE, vehicle .5 % CMC; for ABSOLUTE BASOPHIL / ABSOLUTE EOSINOPHIL / ABSOLUTE LYMPHOCYTE / ABSOLUTE MONOCYTE / ABSOLUTE SEGMENTED NEUTROPHIL / BASOPHIL / EOSINOPHIL / ERYTHROCYTE COUNT / HEMATOCRIT / HEMOGLOBIN / LEUKOCYTE COUNT / LYMPHOCYTE / MEAN CORPUSCULAR HEMOGLOBIN / MEAN CORPUSCULAR HEMOGLOBIN CONCENTRATION / MEAN CORPUSCULAR VOLUME / MONOCYTE / NEUTROPHIL / NUCLEATED RED BLOOD CELLS / PLATELET COUNT: tissue Blood; for ALANINE AMINOTRANSFERASE / ALBUMIN / ALKALINE PHOSPHATASE / ASPARTATE AMINOTRANSFERASE / BLOOD UREA NITROGEN / CARBON DIOXIDE / CHLORIDE / CHOLESTEROL / CREATINE PHOSPHOKINASE / CREATININE / GLUCOSE / LACTATE DEHYDROGENASE / LIPASE / PHOSPHORUS / POTASSIUM / SODIUM / TOTAL BILIRUBIN / TOTAL PROTEIN / URIC ACID: tissue Plasma
[1] = 12 mg/kg, 72 h, dose level Low, time 3 day
[2] = 12 mg/kg, 120 h, dose level Low, time 5 day
[3] = 1200 mg/kg, 72 h, dose level High, time 3 day
[4] = 1200 mg/kg, 120 h, dose level High, time 5 day

Compound: CC(=O)OCC(COC(C)=O)OC(C)=O [TRIACETIN]
- ABSOLUTE BASOPHIL [1]: 0 CELLS/uL
- ABSOLUTE EOSINOPHIL [1]: 0 CELLS/uL
- ABSOLUTE LYMPHOCYTE [1]: 13591 CELLS/uL
- ABSOLUTE MONOCYTE [1]: 0 CELLS/uL
- ABSOLUTE SEGMENTED NEUTROPHIL [1]: 1342.33 CELLS/uL
- BASOPHIL [1]: 0%
- EOSINOPHIL [1]: 0%
- ERYTHROCYTE COUNT [1]: 5.57 x10E6/uL
- HEMATOCRIT [1]: 35.43%
- HEMOGLOBIN [1]: 13.97 G/DL
- LEUKOCYTE COUNT [1]: 14.93 x10E3/uL
- LYMPHOCYTE [1]: 91.33%
- MEAN CORPUSCULAR HEMOGLOBIN [1]: 25.13 pg
- MEAN CORPUSCULAR HEMOGLOBIN CONCENTRATION [1]: 39.43 G/DL
- MEAN CORPUSCULAR VOLUME [1]: 63.77 fL
- MONOCYTE [1]: 0%
- NEUTROPHIL [1]: 8.67%
- NUCLEATED RED BLOOD CELLS [1]: 0 /100WBC
- PLATELET COUNT [1]: 1332 x10E3/uL
- ALANINE AMINOTRANSFERASE [1]: 52 u/L
- ALBUMIN [1]: 4.5 G/DL
- ALKALINE PHOSPHATASE [1]: 453.33 u/L
- ASPARTATE AMINOTRANSFERASE [1]: 96.33 u/L
- BLOOD UREA NITROGEN [1]: 14.33 mg/dL
- CARBON DIOXIDE [1]: 21.67 mmol/L
- CHLORIDE [1]: 105 MEQ/L
- CHOLESTEROL [1]: 71.67 mg/dL
- CREATINE PHOSPHOKINASE [1]: 251 u/L
- CREATININE [1]: 0.21 mg/dL
- GLUCOSE [1]: 185 mg/dL
- LACTATE DEHYDROGENASE [1]: 165.33 u/L
- LIPASE [1]: 9.33 u/L
- PHOSPHORUS [1]: 13.93 mg/dL
- POTASSIUM [1]: 6.64 MEQ/L
- SODIUM [1]: 149.57 MEQ/L
- TOTAL BILIRUBIN [1]: 0.17 mg/dL
- TOTAL PROTEIN [1]: 6.2 G/DL
- URIC ACID [1]: 2.07 mg/dL
- ABSOLUTE BASOPHIL [2]: 0 CELLS/uL
- ABSOLUTE EOSINOPHIL [2]: 0 CELLS/uL
- ABSOLUTE LYMPHOCYTE [2]: 15649 CELLS/uL
- ABSOLUTE MONOCYTE [2]: 168.33 CELLS/uL
- ABSOLUTE SEGMENTED NEUTROPHIL [2]: 1016 CELLS/uL
- BASOPHIL [2]: 0%
- EOSINOPHIL [2]: 0%
- ERYTHROCYTE COUNT [2]: 5.29 x10E6/uL
- HEMATOCRIT [2]: 33.97%
- HEMOGLOBIN [2]: 13.27 G/DL
- LEUKOCYTE COUNT [2]: 16.83 x10E3/uL
- LYMPHOCYTE [2]: 93%
- MEAN CORPUSCULAR HEMOGLOBIN [2]: 25.03 pg
- MEAN CORPUSCULAR HEMOGLOBIN CONCENTRATION [2]: 39.07 G/DL
- MEAN CORPUSCULAR VOLUME [2]: 64.17 fL
- MONOCYTE [2]: 1%
- NEUTROPHIL [2]: 6%
- NUCLEATED RED BLOOD CELLS [2]: 0 /100WBC
- PLATELET COUNT [2]: 1422 x10E3/uL
- ALANINE AMINOTRANSFERASE [2]: 45.67 u/L
- ALBUMIN [2]: 4.27 G/DL
- ALKALINE PHOSPHATASE [2]: 402 u/L
- ASPARTATE AMINOTRANSFERASE [2]: 80.33 u/L
- BLOOD UREA NITROGEN [2]: 15 mg/dL
- CARBON DIOXIDE [2]: 24.33 mmol/L
- CHLORIDE [2]: 103.67 MEQ/L
- CHOLESTEROL [2]: 58 mg/dL
- CREATINE PHOSPHOKINASE [2]: 234 u/L
- CREATININE [2]: 0.12 mg/dL
- GLUCOSE [2]: 156 mg/dL
- LACTATE DEHYDROGENASE [2]: 145 u/L
- LIPASE [2]: 8.33 u/L
- PHOSPHORUS [2]: 14.27 mg/dL
- POTASSIUM [2]: 7.19 MEQ/L
- SODIUM [2]: 146.97 MEQ/L
- TOTAL BILIRUBIN [2]: 0.17 mg/dL
- TOTAL PROTEIN [2]: 5.73 G/DL
- URIC ACID [2]: 1.77 mg/dL
- ABSOLUTE BASOPHIL [3]: 0 CELLS/uL
- ABSOLUTE EOSINOPHIL [3]: 0 CELLS/uL
- ABSOLUTE LYMPHOCYTE [3]: 15023 CELLS/uL
- ABSOLUTE MONOCYTE [3]: 340 CELLS/uL
- ABSOLUTE SEGMENTED NEUTROPHIL [3]: 1637 CELLS/uL
- BASOPHIL [3]: 0%
- EOSINOPHIL [3]: 0%
- ERYTHROCYTE COUNT [3]: 5.45 x10E6/uL
- HEMATOCRIT [3]: 35.37%
- HEMOGLOBIN [3]: 13.63 G/DL
- LEUKOCYTE COUNT [3]: 17 x10E3/uL
- LYMPHOCYTE [3]: 88%
- MEAN CORPUSCULAR HEMOGLOBIN [3]: 25 pg
- MEAN CORPUSCULAR HEMOGLOBIN CONCENTRATION [3]: 38.57 G/DL
- MEAN CORPUSCULAR VOLUME [3]: 64.9 fL
- MONOCYTE [3]: 2%
- NEUTROPHIL [3]: 10%
- NUCLEATED RED BLOOD CELLS [3]: 0 /100WBC
- PLATELET COUNT [3]: 1322 x10E3/uL
- ALANINE AMINOTRANSFERASE [3]: 49.33 u/L
- ALBUMIN [3]: 4.13 G/DL
- ALKALINE PHOSPHATASE [3]: 331 u/L
- ASPARTATE AMINOTRANSFERASE [3]: 79.33 u/L
- BLOOD UREA NITROGEN [3]: 14 mg/dL
- CARBON DIOXIDE [3]: 19 mmol/L
- CHLORIDE [3]: 102 MEQ/L
- CHOLESTEROL [3]: 69.67 mg/dL
- CREATINE PHOSPHOKINASE [3]: 229 u/L
- CREATININE [3]: 0.18 mg/dL
- GLUCOSE [3]: 149.33 mg/dL
- LACTATE DEHYDROGENASE [3]: 172.67 u/L
- LIPASE [3]: 10 u/L
- PHOSPHORUS [3]: 14.13 mg/dL
- POTASSIUM [3]: 7.15 MEQ/L
- SODIUM [3]: 145.03 MEQ/L
- TOTAL BILIRUBIN [3]: 0.17 mg/dL
- TOTAL PROTEIN [3]: 5.83 G/DL
- URIC ACID [3]: 1.73 mg/dL
- ABSOLUTE BASOPHIL [4]: 0 CELLS/uL
- ABSOLUTE EOSINOPHIL [4]: 0 CELLS/uL
- ABSOLUTE LYMPHOCYTE [4]: 12251.33 CELLS/uL
- ABSOLUTE MONOCYTE [4]: 0 CELLS/uL
- ABSOLUTE SEGMENTED NEUTROPHIL [4]: 1215.33 CELLS/uL
- BASOPHIL [4]: 0%
- EOSINOPHIL [4]: 0%
- ERYTHROCYTE COUNT [4]: 5.48 x10E6/uL
- HEMATOCRIT [4]: 34.33%
- HEMOGLOBIN [4]: 13.57 G/DL
- LEUKOCYTE COUNT [4]: 13.47 x10E3/uL
- LYMPHOCYTE [4]: 91%
- MEAN CORPUSCULAR HEMOGLOBIN [4]: 24.77 pg
- MEAN CORPUSCULAR HEMOGLOBIN CONCENTRATION [4]: 39.6 G/DL
- MEAN CORPUSCULAR VOLUME [4]: 62.6 fL
- MONOCYTE [4]: 0%
- NEUTROPHIL [4]: 9%
- NUCLEATED RED BLOOD CELLS [4]: 0 /100WBC
- PLATELET COUNT [4]: 1274.67 x10E3/uL
- ALANINE AMINOTRANSFERASE [4]: 49.33 u/L
- ALBUMIN [4]: 4.07 G/DL
- ALKALINE PHOSPHATASE [4]: 315.33 u/L
- ASPARTATE AMINOTRANSFERASE [4]: 87.67 u/L
- BLOOD UREA NITROGEN [4]: 16.67 mg/dL
- CARBON DIOXIDE [4]: 25 mmol/L
- CHLORIDE [4]: 103 MEQ/L
- CHOLESTEROL [4]: 71 mg/dL
- CREATINE PHOSPHOKINASE [4]: 262.67 u/L
- CREATININE [4]: 0.16 mg/dL
- GLUCOSE [4]: 147.33 mg/dL
- LACTATE DEHYDROGENASE [4]: 331 u/L
- LIPASE [4]: 8.33 u/L
- PHOSPHORUS [4]: 13.2 mg/dL
- POTASSIUM [4]: 6.8 MEQ/L
- SODIUM [4]: 145.37 MEQ/L
- TOTAL BILIRUBIN [4]: 0.17 mg/dL
- TOTAL PROTEIN [4]: 6 G/DL
- URIC ACID [4]: 1.37 mg/dL
